The values that follow come from patent US11913032B2, “Compositions of and methods for in vitro viral genome engineering” (C3J Therapeutics, Inc., priority 2014, dated 2024).

This test deals with P. aeruginosa biofilm. The experiment in a line: Crystal violet biofilm assay, early (8 h preformed) biofilm disruption. In kind it is cell-based. The following applies: biofilm preformed for 8 hours, compared with wild type LUZ19. The protocol:
To validate that a Gp34 L55Δ mutation had improved viral properties, the LUZ19 viral genome was isolated from viral particles. Site-specific digestion was performed using an RNA-dependent nuclease and in vitro transcribed gRNAs to remove the gp34 gene (SEQ ID NO:4). The gp34 L55Δ gene, which harbors a deletion of leucine codon at amino acid position 55 (Gp34 L55Δ, position 163-165 of SEQ ID NO:4) was PCR amplified from a LUZ19 evolved phage. The Gibson Assembly method was used to integrate the PCR amplified gp34 L55Δ gene seamlessly into the digested LUZ19 genome. The in vitro transformed genomes were transformed directly into host cells to yield functional viral particles. The engineered LUZ19 virus harboring Gp34 L55Δ was able to diffuse and lyse bacteria. […] Images were taken and zones of clearing were measured over a two-day period (FIG. 5B). […] Crystal violet biofilm assay measures biofilm accumulation as a measure of the incorporation of crystal violet (FIG. 5C). […]
The LUZ19*LKD16gp18 virus was analyzed for improved viral properties, using double agar plaque, biofilm, and an in vitro human keratinocyte attachment assays. […] Specifically, LUZ19*LKD16gp18 and wild type LUZ19 were incubated with a P. aeruginosa biofilm and disruption was measured using crystal violet. […] The LUZ19*LKD16gp18 virus was analyzed for efficacy of phage treatment against bacteria attached to human keratinocytes. […]

Gentamicin: the early biofilm disruption result is listed as “completely remove biofilm”.
